Measured values published in patent publication US5502068A, “Cyclopropylpyrroloindole-oligopeptide anticancer agents” (Synphar Laboratories, Inc., priority 1995, dated 1996).
Values after ≈ are worked out from the molar mass of the structure shown. “Also recorded” adds a separate entry of the source. Read-outs that look alike come from different tables or passages of the source.

What was measured:
[1] = system: KB human nasopharyngeal carcinoma cells; assay: Cytotoxicity (antiproliferative effect), crystal violet staining; type: cell-based; settings: Homo sapiens, KB, 72 h
Procedure: KB human nasopharyngeal carcinoma cells, were maintained in RPMI 1640 medium supplemented with 10% fetal bovine serum. KB cells were cultured in plastic tissue culture flasks and kept in an incubator at 37° C. in humidified air containing 5% CO2. These cells were free of Mycoplasma as determined with Hoechst 33258 stain.
The antiproliferative effect of compounds was determined using cell staining method by crystal violet.
One hundred-μ1 cultures were established at 10^3 cells/well in 96-well tissue culture plates (Nunc, Roskilde, Denmark). After 24 h. 100 µl of the medium containing 2 times concentrated the compounds were added to the cell culture. After an additional 3 days culture, cells were fixed to 20 µl of 25% glutaraldehyde for 15 minutes and washed with water, dried and stained with 0.05% crystal violet in 20% methanol for 15 minutes. After washing with water and drying, crystal violet was extracted with 100 µl of 50 mM NaH2 PO4 /ethanol (1:1 v/v) and OD540 was measured by the multiscanphotometer (Corona, Tokyo, Japan). A linear relationship between cell number and the amount of dye binding was found over the range of cell densities observed all experiments.

DNA [2] = settings: in words, cited from earlier work
DNA [3] = assay: Site and sequence selective DNA alkylation by polyacrylamide gel electrophoresis (PAGE); type: biochemical; settings: for Alkylation Intensity at AATA*: site AATA*; for Alkylation Intensity at ATAA*: site ATAA*; for Alkylation Intensity at CTTA: site CTTA; for Alkylation Intensity at GAAA: site GAAA; for Alkylation Intensity at GATA*: site GATA*; for Alkylation Intensity at GTTA: site GTTA; for Alkylation Intensity at TATA: site TATA; for Alkylation Intensity at TTAA*: site TTAA*; for Alkylation Intensity at TTTA: site TTTA
Excerpt: In contrast to FCE 24517, clear evidence of site and sequence selective DNA alkylation was obtained for the new CPI-oligopeptides by polyacrylamide gel electrophoresis (PAGE). […] Table 5 quantifies and compares the alkylation intensities at different sites for the CPI-oligopeptides with CC-1065. […] A detailed analysis of the frequency of occurrence of bases flanking the prominent alkylation sites for YW-052 and YW-053 compared with CC-1065 is given in Table 7.

[4] = clinical applications/usage; in words; cited from earlier work
[5] = system: P388 lymphocytic leukemia cells; assay: Antitumor efficacy, i.p. P388 lymphocytic leukemia in CDF1 mice; type: in vivo, mouse; settings: maximum ILS, P388 ip
Procedure: All compounds were dissolved in dimethyl sulfoxide (DMSO), diluted in sterile 0.9% NaCl solution to 5% final DMSO concentration. BALB/c X DBA/2F1 (CDF1) mice were purchased from Japan CLEA. P388 lymphocytic leukemia cells were inoculated intraperitoneally (10^6 cells) 1 day prior to treatment into 6 week-old male CDF1 mice, and compounds were injected intraperitoneally in a total volume of 0.1 ml/10g mouse body weight. Efficacy for these models was expressed as the Increase in life span (ILS) of treated mice in comparison to untreated tumor-bearing mice. Experiment was completed on day 30 after tumor inoculation, and survivor on that day was evaluated as cured animal. Time to death (mean±SD.n=9) for untreated animals was 11.5±1.2 day and for solvent treated animals was 11.7±2.1 day.

[6] = Table 1, KB cells, 3 days, read-out: KB cells, toxicity TD50
[7] = Table 2, KB cells, 3 days, read-out: KB cells, toxicity TD50
[8] = Table 4, KB cell, read-out: Cytotoxicity IC50 (KB cell)

COc1cccc2c1C(=O)c1c(O)c3c(c(O)c1C2=O)C[C@@](O)(C(=O)CO)C[C@@H]3O[C@H]1C[C@H](N)[C@H](O)[C@H](C)O1 [Adriamycin, reference compound]
IC50 [1, 6]: 11 ng/mL (≈ 20.2 nM) | IC50 [1, 7]: 5 ng/mL (≈ 9.2 nM) | IC50 ([1]; Table 3, KB cells, 3 days, read-out: KB cells, toxicity TD50): 4.4 ng/mL (≈ 8.1 nM)

COc1c(O)c2c(c3cc(C(=O)N4CCc5c4c(O)c(OC)c4[nH]c(C(=O)N6CC7CC78C6=CC(=O)c6[nH]cc(C)c68)cc54)[nH]c13)CCN2C(N)=O (stereo not shown) [CC-1065, reference compound]
DNA sequence recognition (DNA [2]): strictly AT recognizing; also recorded: strictly limited AATT recognition | IC50 [1, 7]: 0.001 ng/mL (≈ 0.00142 nM) | Frequency of Occurrence, base A at +1 (DNA [3]; A, position +1): 30% | Frequency of Occurrence, base A at +2 (DNA [3]; A, position +2): 30% | Frequency of Occurrence, base A at +3 (DNA [3]; A, position +3): 20% | Frequency of Occurrence, base A at -1 (DNA [3]; A, position -1): 40% | Frequency of Occurrence, base A at -2 (DNA [3]; A, position -2): 40% | Frequency of Occurrence, base A at -3 (DNA [3]; A, position -3): 30% | Frequency of Occurrence, A/T at +1 (DNA [3]; A/T, position +1): 80% | Frequency of Occurrence, A/T at +2 (DNA [3]; A/T, position +2): 60% | Frequency of Occurrence, A/T at +3 (DNA [3]; A/T, position +3): 50% | Frequency of Occurrence, A/T at -1 (DNA [3]; A/T, position -1): 100% | Frequency of Occurrence, A/T at -2 (DNA [3]; A/T, position -2): 100% | Frequency of Occurrence, A/T at -3 (DNA [3]; A/T, position -3): 60% | Frequency of Occurrence, base C at +3 (DNA [3]; C, position +3): 10% | Frequency of Occurrence, base C at -3 (DNA [3]; C, position -3): 30% | Frequency of Occurrence, base G at +1 (DNA [3]; G, position +1): 20% | Frequency of Occurrence, base G at +2 (DNA [3]; G, position +2): 40% | Frequency of Occurrence, base G at +3 (DNA [3]; G, position +3): 40% | Frequency of Occurrence, base G at -3 (DNA [3]; G, position -3): 10% | DNA alkylation (DNA [3]; PAGE, in words): alkylate DNA strongly | Frequency of Occurrence, base T at +1 (DNA [3]; T, position +1): 50% | Frequency of Occurrence, base T at +2 (DNA [3]; T, position +2): 30% | Frequency of Occurrence, base T at +3 (DNA [3]; T, position +3): 30% | Frequency of Occurrence, base T at -1 (DNA [3]; T, position -1): 60% | Frequency of Occurrence, base T at -2 (DNA [3]; T, position -2): 60% | Frequency of Occurrence, base T at -3 (DNA [3]; T, position -3): 30% | Frequency of Occurrence, A* (site of alkylation) (DNA [3]; alkylated base A*): 100% | Frequency of Occurrence, G* (site of alkylation) (DNA [3]; alkylated base G*): 0% | Alkylation Sites (5'-3'), Moderate (DNA [3]; moderate sites): TATA, TTAA, GTTA; also recorded: CTTA, GGAA | Alkylation Intensity at AATA* (DNA [3]): 1.08 | Alkylation Intensity at ATAA* (DNA [3]; first column of Table 5): 1.47 | Alkylation Intensity at ATAA* (DNA [3]; third column of Table 5): .96 | Alkylation Intensity at CTTA (DNA [3]): .61 | Alkylation Intensity at GAAA (DNA [3]): .35 | Alkylation Intensity at GATA* (DNA [3]): .80 | Alkylation Intensity at GTTA (DNA [3]): 1.20 | Alkylation Intensity at TATA (DNA [3]): 1.02 | Alkylation Intensity at TTAA* (DNA [3]): .80 | Alkylation Intensity at TTTA (DNA [3]): 1.09 | Alkylation Sites (5'-3'), Strong (DNA [3]; strong sites): TTTA, GATA, ATAA; also recorded: AATA, ATAA | toxicity (delayed death syndrome) [4]: too toxic for clinical applications because of the delayed death syndrome; also recorded: too toxic for clinical usage

Cn1cc(NC(=O)c2cc(NC(=O)c3cc(NC(=O)c4ccc(N(CCCl)CCCl)cc4)cn3C)cn2C)cc1C(=O)NCCC(=N)N [FCE 24517]
DNA alkylation (DNA [2]; Arcamone et al., 1989): shows no evidence of DNA alkylation | DNA sequence recognition (DNA [2]): strictly AT recognizing; also recorded: strictly limited AATT recognition

CC(=O)Nc1cc(C(=O)N2CC3CC34C2=CC(=O)c2[nH]cc(C)c24)n(C)c1 (stereo not shown) [YW-031]
IC50 [1, 6]: 0.0324 ng/mL (≈ 0.0889 nM)

Cc1c[nH]c2c1C13CC1CN(C(=O)c1cccn1C)C3=CC2=O (stereo not shown) [YW-032]
IC50 [1, 6]: 38 ng/mL (≈ 124 nM) | Alkylation Intensity at AATA* (DNA [3]): 1.35 | Alkylation Intensity at ATAA* (DNA [3]; first column of Table 5): .88 | Alkylation Intensity at ATAA* (DNA [3]; third column of Table 5): 1.01 | Alkylation Intensity at CTTA (DNA [3]): .61 | Alkylation Intensity at GAAA (DNA [3]): .79 | Alkylation Intensity at GATA* (DNA [3]): 1.35 | Alkylation Intensity at GTTA (DNA [3]): 1.03 | Alkylation Intensity at TATA (DNA [3]): 1.05 | Alkylation Intensity at TTAA* (DNA [3]): .71 | Alkylation Intensity at TTTA (DNA [3]): .63

Cc1c[nH]c2c1C13CC1CN(C(=O)CCc1cccn1C)C3=CC2=O (stereo not shown) [YW-033]
IC50 [1, 6]: 263 ng/mL (≈ 784 nM) | Alkylation Intensity at AATA* (DNA [3]): 1.42 | Alkylation Intensity at ATAA* (DNA [3]; first column of Table 5): .95 | Alkylation Intensity at ATAA* (DNA [3]; third column of Table 5): 1.11 | Alkylation Intensity at CTTA (DNA [3]): .68 | Alkylation Intensity at GAAA (DNA [3]): .84 | Alkylation Intensity at GATA* (DNA [3]): 1.41 | Alkylation Intensity at GTTA (DNA [3]): 1.27 | Alkylation Intensity at TATA (DNA [3]): 1.40 | Alkylation Intensity at TTAA* (DNA [3]): .84 | Alkylation Intensity at TTTA (DNA [3]): .97

Cc1c[nH]c2c1C13CC1CN(C(=O)C=Cc1cccn1C)C3=CC2=O (stereo not shown) [YW-034]
IC50 [1, 6]: 0.275 ng/mL (≈ 0.825 nM) | IC50 [1, 8]: 0.27 ng/mL (≈ 0.81 nM) | Alkylation Intensity at AATA* (DNA [3]): 1.30 | Alkylation Intensity at ATAA* (DNA [3]; first column of Table 5): .71 | Alkylation Intensity at ATAA* (DNA [3]; third column of Table 5): .84 | Alkylation Intensity at CTTA (DNA [3]): .44 | Alkylation Intensity at GAAA (DNA [3]): .55 | Alkylation Intensity at GATA* (DNA [3]): 1.09 | Alkylation Intensity at GTTA (DNA [3]): .73 | Alkylation Intensity at TATA (DNA [3]): .77 | Alkylation Intensity at TTAA* (DNA [3]): .52 | Alkylation Intensity at TTTA (DNA [3]): .49 | In vivo ILS P388 (ip) ([5]; 1 mg/kg ip): 37.9%

CCC(=O)Nc1cc(C(=O)N2CC3CC34C2=CC(=O)c2[nH]cc(C)c24)n(C)c1 (stereo not shown) [YW-035]
IC50 [1, 8]: 1 ng/mL (≈ 2.64 nM) | In vivo ILS P388 (ip) ([5]; 0.1 mg/kg ip): 56.5%
